Assay: xn = mol fraction of the nth substance listed
Details: 100 kPa

CN(C)c1ccccc1 + CCCC[n+]1ccn(C)c1.O=S(=O)([O-])C(F)(F)F
viscosity [mPa·s]
Details	288.15 K	293.15 K	298.15 K	303.15 K	308.15 K	313.15 K	318.15 K	323.15 K	328.15 K	333.15 K
x1 = 0.1	97.6	75.7	59.9	48.1	39.5	32.2	–	23	–	–
x1 = 0.2	72.8	57.1	45.7	37	–	–	21.46	18.3	15.74	13.64
x1 = 0.2998	–	42.8	34.8	28.4	23.9	19.91	17.1	14.72	12.77	11.16
x1 = 0.397	–	31.5	–	21.69	18.27	15.46	13.4	11.63	10.19	8.98
x1 = 0.5045	26.1	21.17	17.76	14.77	12.85	11.04	9.68	8.5	7.52	–
x1 = 0.5996	16.87	13.93	11.92	10.23	8.87	7.69	6.84	6.08	5.43	4.9
x1 = 0.6997	–	8.5	7.42	6.47	5.71	–	–	4.09	3.7	3.36
x1 = 0.7994	6	5.21	4.62	4.1	3.68	3.3	3.01	2.75	2.52	2.31
x1 = 0.8945	3.27	2.91	–	2.37	2.164	1.988	–	1.692	–	–
x1 = 1	–	–	1.302	1.206	1.123	1.056	0.981	–	0.865	0.819

Nc1ccccc1 + CCCC[n+]1ccn(C)c1.O=S(=O)([O-])C(F)(F)F
x1 = 1
Details	viscosity [mPa·s]
288.15 K	5.32
293.15 K	4.41
298.15 K	3.74
303.15 K	3.2
308.15 K	2.78
313.15 K	2.45
318.15 K	2.159
328.15 K	1.738
333.15 K	1.577

CCCC[n+]1ccn(C)c1.O=S(=O)([O-])C(F)(F)F + CN(C)c1ccccc1
x2 = 0
Details	viscosity [mPa·s]
288.15 K	132.7
293.15 K	102
298.15 K	80.1
303.15 K	64
313.15 K	42.8
318.15 K	35.7
323.15 K	30
328.15 K	25.5
333.15 K	22

CCCC[n+]1ccn(C)c1.O=S(=O)([O-])C(F)(F)F + Nc1ccccc1
viscosity [mPa·s]
Details	288.15 K	293.15 K	298.15 K	303.15 K	308.15 K	313.15 K	318.15 K	323.15 K	328.15 K	333.15 K
x2 = 0	–	102	80.1	64	52.2	42.8	35.7	30	25.5	22
x2 = 0.1	110.3	85.3	67.5	54.6	44.4	36.6	30.6	25.9	22.17	19.07
x2 = 0.1995	90.9	70.6	–	45.5	37.2	30.7	25.8	21.9	18.82	–
x2 = 0.3002	–	–	45.9	–	30.6	25.4	21.47	–	15.71	13.63
x2 = 0.3996	–	–	–	–	–	–	–	15.11	13.02	11.38
x2 = 0.8999	8.95	7.31	6.18	5.26	4.54	3.93	3.5	–	–	2.47
